Laboratory results published in patent publication US5451522A, “Genes encoding and method of expressing an enzyme: phthalyl amidase” (priority 1994, dated 1995).

How the values were obtained:
phthalyl amidase [1] = target: T1, phthalyl amidase (Xanthobacter agilis, UniProt P0C2Y0); test: Preparative scale hydrolysis to carbacephem nucleus; assay type: biochemical
T1 construct: 42-aa signal peptide removed
Description: (§1) Thus, either compound XXXIII or III can be used to prepare the carbacephem nucleus (XXXIV). Substrate (4 grams) was added to 20 ml of deionized water and the pH of the solution was adjusted to 8.0 with concentrated ammonium hydroxide. Phthalyl amidase, 80 units as determined using the chromogenic substrate (II), was added to start the reaction. Temperature was maintained at 30° C. and the pH maintained at 8.0 by adding 2N ammonium hydroxide. […] The pH of the reaction was lowered to 5.0 thereby precipitating the carbacephem nucleus. Isolated yields of the nucleus were between 65% and 77%. [drawing 26]

phthalyl amidase [2] = target: T1, phthalyl amidase; test: Kinetic parameters for phthalyl amidase; assay type: biochemical; details: 50 mM potassium phosphate buffer, pH 8.0, 30° C.
Description: The kinetic parameters of the enzyme were determined for several representative substrates. Compounds II, XVII, and XVIII were tested using 0.9 μg/ml of enzyme. Compounds III and XI were tested using 5.14 μg/ml of enzyme. Substrate concentrations were between 0 and 25 mM and reaction time was between 2 and 20 minutes, depending on the substrate used. […] Km is the Michaelis constant for enzyme kinetics, Vmax is the maximal rate of reaction calculated by the Michaelis-Menten equation, and Kcat is the catalytic constant for an enzyme reaction.

phthalyl amidase [3] = target: T1, phthalyl amidase; test: Chiral and additional substrate selectivity of phthalyl amidase; assay type: biochemical; details: Table 13; III = 100; 0.009 mg (0.6 units) enzyme, 2.5 μmol substrate, buffer A, 30° C.
Description: Several additional substrates were tested in a total volume of 1 ml. […] Reactions were stopped by the addition of methanol, and phthalic acid formation was monitored by HPLC.

phthalyl amidase [4] = target: T1, phthalyl amidase; test: Substrate specificity: chemical structure requirements for enzyme activity; assay type: biochemical; details: 2.5 μmol compound, 0.3 units enzyme, 50 mM phosphate pH 8.0, 30° C.
Description: (§2) The activity of phthalyl amidase against 25 compounds was determined. The compounds were divided into beta-lactams (Table 9), phthalyl amides (Table 10), and aromatic ring substituted amides (Table 11). Each reaction mixture (1 ml total volume) contained 2.5 μmol of compound and 0.3 units of enzyme (based on the chromogenic substrate) of the preparative scale purified enzyme, in 50 mM phosphate buffer, pH 8.0. The reactions were conducted at 30° C. Samples of the reaction mixture were taken at various times, and methanol (equal volume) was added to stop the reaction. The samples were examined by HPLC to determine the extent of substrate hydrolysis. The amount of compound hydrolyzed was calculated from a standard curve of the test compound. All substrates were stable in buffer at 30° C. and pH 8.0 in the absence of enzyme for 24 hours.

[5] = Stability of substrates in buffer without enzyme; assay type: physicochemical; details: buffer at pH 8.0
Description: as §2
as §1, with “Isolated yields of the nucleus were between 65% and 77%. [drawing 26]” left out

T1 sequence (P0C2Y0 2-453): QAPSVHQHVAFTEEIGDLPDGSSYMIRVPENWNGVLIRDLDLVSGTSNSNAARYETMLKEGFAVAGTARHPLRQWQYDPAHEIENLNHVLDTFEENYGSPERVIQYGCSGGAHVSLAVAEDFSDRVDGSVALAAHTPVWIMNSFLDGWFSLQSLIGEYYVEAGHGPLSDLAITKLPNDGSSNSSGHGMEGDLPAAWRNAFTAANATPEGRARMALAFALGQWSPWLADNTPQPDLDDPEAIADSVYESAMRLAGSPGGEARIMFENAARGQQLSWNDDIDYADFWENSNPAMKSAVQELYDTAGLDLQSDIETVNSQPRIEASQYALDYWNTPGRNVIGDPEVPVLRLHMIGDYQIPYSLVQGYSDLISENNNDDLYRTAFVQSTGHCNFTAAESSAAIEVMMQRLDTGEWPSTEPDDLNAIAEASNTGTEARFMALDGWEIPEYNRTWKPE

| SMILES | hydrolyzed (HPLC) (phthalyl amidase [1]; phthalyl amidase, […], pH 8) [%] | Vmax (phthalyl amidase [2]) [µmol/min/mg] | Relative Activity (phthalyl amidase [3]) | Relative Activity (phthalyl amidase [4]; Table 9 beta-lactams, III = 100) | Relative Activity (phthalyl amidase [4]; Table 10 phthalyl amides, III = 100.0) | hydrolysis of phthalimido to phthalamido form in buffer (in words) [5] | hydrolyzed (HPLC) (phthalyl amidase [1]; 4 grams substrate, 80 units enzyme, pH 8.0, 30° C., after 510 minutes) [%] |
| --- | --- | --- | --- | --- | --- | --- | --- |
| O=C(O)C1=C(Cl)CCC2C(NC(=O)c3ccccc3C(=O)O)C(=O)N12 (stereo not shown) [III, 7-phthalamido-3-chloro-4-carboxy-1-carba-dethioceph-3-em] | 90.0 | 7.6 | 100 | 100 | 100.0 |  |  |
| O=C(O)C1=C(Cl)CCC2C(N3C(=O)c4ccccc4C3=O)C(=O)N12 (stereo not shown) [XXXIII] |  |  |  |  |  | readily hydrolyzes | 98 |
